In patent publication US20240218022A1, “ANTI-VISTA MACROCYCLIC PEPTIDES AND COMPOSITIONS” (BRISTOL-MYERS SQUIBB COMPANY, priority 2022, published 2024):
Starred links: 1 amine or outer side, 2 acyl side, 3 side chain; linkers in the order of their positions; H or OH if unused. Positions of bridges follow the written chain, without caps; N, C: chain ends. Non-standard residues stand in square brackets, D forms with d. Residues, ends and D or L forms follow the SMILES beside them. Phe(3-Me) = Cc1cccc(C[C@H](N)C(=O)O)c1; γGlu = O=C(O)[C@H](CCC(=O)[*:2])N[*:1]; 2Nal = N[C@@H](Cc1ccc2ccccc2c1)C(=O)O; NMeL = CN[C@@H](CC(C)C)C(=O)O; Ahp(2) = CCCCC[C@H](N)C(=O)O; NMeNle = CCCC[C@H](NC)C(=O)O; Tle = CC(C)(C)[C@H](N)C(=O)O; NHexGly = CCCCCCNCC(=O)O; Nle = CCCC[C@H](N)C(=O)O; Aun = NCCCCCCCCCCC(=O)O; AEEA = NCCOCCOCC(=O)O

Molecular target: T1, mouse VISTA (mVISTA) (Mus musculus, UniProt Q9D659)
T1 construct: expressed in transfected cells; host or cells: Human embryonic kidney 293T cells
T1 sequence (Q9D659 33-308): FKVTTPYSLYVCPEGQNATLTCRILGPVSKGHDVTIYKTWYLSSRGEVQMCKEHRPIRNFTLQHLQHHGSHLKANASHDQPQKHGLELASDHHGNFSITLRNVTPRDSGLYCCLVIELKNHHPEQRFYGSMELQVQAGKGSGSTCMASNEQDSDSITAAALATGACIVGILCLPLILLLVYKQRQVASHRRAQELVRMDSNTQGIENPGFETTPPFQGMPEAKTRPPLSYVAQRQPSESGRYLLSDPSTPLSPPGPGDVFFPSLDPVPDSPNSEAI
Test: Cell-Based Binding High-Content Assay For mVISTA (HC CBA mVISTA)
Conditions: read-out: HC CBA mVISTA IC50
Outline: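 This high-content binding assay uses HEK293T cells expressing murine VISTA, measuring displacement of 2 nM biotinylated peptide by fluorescent streptavidin imaging. IC50 values come from four-parameter logistic fitting.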

Compound	IC50 [nM]
CCCCCCN1CC(=O)N[C@@H](Cc2ccc(O)cc2)C(=O)N[C@@H](CC(C)C)C(=O)N[C@@H](CC(N)=O)C(=O)N[C@@H](CCCNC(=N)N)C(=O)N[C@@H](CC(C)C)C(=O)N[C@@H](CCCCC)C(=O)N2CCC[C@H]2C(=O)N[C@@H](C(C)C)C(=O)N[C@@H](C(C)C)C(=O)N[C@H](C(=O)NCCOCCOCC(=O)N[C@@H](CCC(=O)NCCOCCOCC(=O)NCCCCCCCCCCC(=O)O)C(=O)O)CSCC(=O)N[C@@H](Cc2ccccc2)C(=O)N[C@@H](Cc2cccc(C)c2)C(=O)N[C@@H](CC(=O)O)C1=O [compound 2221] ({CH2CO}-F[Phe(3-Me)]D[NHexGly]YLNRL[Ahp(2)]PVVC[AEEA][γGlu][AEEA][Aun]-OH; thioether N-14)	33.5
CCCCCCN1CC(=O)N[C@@H](Cc2ccc(O)cc2)C(=O)N[C@@H](CCCC)C(=O)N[C@@H](CC(N)=O)C(=O)N[C@@H](CCCNC(=N)N)C(=O)N(C)[C@@H](CCCC)C(=O)N[C@@H](CCCCC)C(=O)N2CCC[C@H]2C(=O)N[C@@H](C(C)(C)C)C(=O)N[C@@H](CO)C(=O)N[C@H](C(=O)NCCOCCOCC(=O)N[C@@H](CCC(=O)NCCOCCOCC(=O)NCCCCCCCCCCC(=O)O)C(=O)O)CSCC(=O)N[C@@H](Cc2ccccc2)C(=O)N[C@@H](Cc2cccc(C)c2)C(=O)N[C@@H](CC(=O)O)C1=O [compound 2225] ({CH2CO}-F[Phe(3-Me)]D[NHexGly]Y[Nle]NR[NMeNle][Ahp(2)]P[Tle]SC[AEEA][γGlu][AEEA][Aun]-OH; thioether N-14)	30.8
CCCCCCN1CC(=O)N[C@@H](Cc2ccc(O)cc2)C(=O)N[C@@H](CCCC)C(=O)N[C@@H](CC(N)=O)C(=O)N[C@@H](CCCNC(=N)N)C(=O)N(C)[C@@H](CCCC)C(=O)N[C@@H](CCCCC)C(=O)N2CCC[C@H]2C(=O)N[C@@H](C(C)(C)C)C(=O)N[C@@H](CO)C(=O)N[C@H](C(=O)NCCOCCOCC(=O)N[C@@H](CCC(=O)NCCOCCOCC(=O)NCCCCCCCCCCC(=O)O)C(=O)O)CSCC(=O)N[C@@H](Cc2ccc3ccccc3c2)C(=O)N[C@@H](Cc2ccc(O)cc2)C(=O)N[C@@H](CC(=O)O)C1=O [compound 2227] ({CH2CO}-[2Nal]YD[NHexGly]Y[Nle]NR[NMeNle][Ahp(2)]P[Tle]SC[AEEA][γGlu][AEEA][Aun]-OH; thioether N-14)	41.5
CCCCCCN1CC(=O)N[C@@H](Cc2ccc(O)cc2)C(=O)N[C@@H](CCCC)C(=O)N[C@@H](CC(N)=O)C(=O)N[C@@H](CCCNC(=N)N)C(=O)N(C)[C@@H](CCCC)C(=O)N[C@@H](CCCCC)C(=O)N2CCC[C@H]2C(=O)N[C@@H](C(C)(C)C)C(=O)N[C@@H](CO)C(=O)N[C@H](C(=O)NCCOCCOCC(=O)N[C@@H](CCC(=O)NCCOCCOCC(=O)NCCCCCCCCCCC(=O)O)C(=O)O)CSCC(=O)N[C@@H](Cc2cccc(C)c2)C(=O)N[C@@H](Cc2c[nH]c3ccccc23)C(=O)N[C@@H](CC(=O)O)C1=O [compound 2228] ({CH2CO}-[Phe(3-Me)]WD[NHexGly]Y[Nle]NR[NMeNle][Ahp(2)]P[Tle]SC[AEEA][γGlu][AEEA][Aun]-OH; thioether N-14)	38.8
CCCCCCN1CC(=O)N[C@@H](Cc2ccc(O)cc2)C(=O)N[C@@H](CCCC)C(=O)N[C@@H](CC(N)=O)C(=O)N[C@@H](CCCNC(=N)N)C(=O)N(C)[C@@H](CC(C)C)C(=O)N[C@@H](CCCCC)C(=O)N2CCC[C@H]2C(=O)N[C@@H](C(C)(C)C)C(=O)N[C@@H](CO)C(=O)N[C@H](C(=O)NCCOCCOCC(=O)N[C@@H](CCC(=O)NCCOCCOCC(=O)NCCCCCCCCCCC(=O)O)C(=O)O)CSCC(=O)N[C@@H](Cc2ccccc2)C(=O)N[C@@H](Cc2c[nH]c3ccccc23)C(=O)N[C@@H](CC(=O)O)C1=O [compound 2229] ({CH2CO}-FWD[NHexGly]Y[Nle]NR[NMeL][Ahp(2)]P[Tle]SC[AEEA][γGlu][AEEA][Aun]-OH; thioether N-14)	33.1

The next compounds have a lower IC50 than those just listed; values first:

IC50 [nM]	Compound
28.7	CCCCCCN1CC(=O)N[C@@H](Cc2ccc(O)cc2)C(=O)N[C@@H](CCCC)C(=O)N[C@@H](CC(N)=O)C(=O)N[C@@H](CCCNC(=N)N)C(=O)N[C@@H](CC(C)C)C(=O)N[C@@H](CCCCC)C(=O)N2CCC[C@H]2C(=O)N[C@@H](C(C)C)C(=O)N[C@@H](CC(=O)O)C(=O)N[C@H](C(=O)NCCOCCOCC(=O)N[C@@H](CCC(=O)NCCOCCOCC(=O)NCCCCCCCCCCC(=O)O)C(=O)O)CSCC(=O)N[C@@H](Cc2cccc(C)c2)C(=O)N[C@@H](Cc2c[nH]c3ccccc23)C(=O)N[C@@H](CC(=O)O)C1=O [compound 2222] ({CH2CO}-[Phe(3-Me)]WD[NHexGly]Y[Nle]NRL[Ahp(2)]PVDC[AEEA][γGlu][AEEA][Aun]-OH; thioether N-14)
24.4	CCCCCCN1CC(=O)N[C@@H](Cc2ccc(O)cc2)C(=O)N[C@@H](CCCC)C(=O)N[C@@H](CC(N)=O)C(=O)N[C@@H](CCCNC(=N)N)C(=O)N(C)[C@@H](CCCC)C(=O)N[C@@H](CCCCC)C(=O)N2CCC[C@H]2C(=O)N[C@@H](C(C)(C)C)C(=O)N[C@@H](CO)C(=O)N[C@H](C(=O)NCCOCCOCC(=O)N[C@@H](CCC(=O)NCCOCCOCC(=O)NCCCCCCCCCCC(=O)O)C(=O)O)CSCC(=O)N[C@@H](Cc2ccccc2)C(=O)N[C@@H](Cc2c[nH]c3ccccc23)C(=O)N[C@@H](CC(=O)O)C1=O [compound 2226] ({CH2CO}-FWD[NHexGly]Y[Nle]NR[NMeNle][Ahp(2)]P[Tle]SC[AEEA][γGlu][AEEA][Aun]-OH; thioether N-14)
24.3	CCCCCCN1CC(=O)N[C@@H](Cc2ccc(O)cc2)C(=O)N[C@@H](CCCC)C(=O)NCC(=O)N[C@@H](CCCNC(=N)N)C(=O)N[C@@H](CC(C)C)C(=O)N[C@@H](CCCCC)C(=O)N2CCC[C@H]2C(=O)N[C@@H](C(C)C)C(=O)N[C@@H](CC(=O)O)C(=O)N[C@H](C(=O)NCCOCCOCC(=O)N[C@@H](CCC(=O)NCCOCCOCC(=O)NCCCCCCCCCCC(=O)O)C(=O)O)CSCC(=O)N[C@@H](Cc2cccc(C)c2)C(=O)N[C@@H](Cc2ccc(O)cc2)C(=O)N[C@@H](CC(=O)O)C1=O [compound 2216] ({CH2CO}-[Phe(3-Me)]YD[NHexGly]Y[Nle]GRL[Ahp(2)]PVDC[AEEA][γGlu][AEEA][Aun]-OH; thioether N-14)
24	CCCCCCN1CC(=O)N[C@@H](Cc2ccc(O)cc2)C(=O)N[C@@H](C(C)C)C(=O)NCC(=O)N[C@@H](CCCNC(=N)N)C(=O)N[C@@H](CC(C)C)C(=O)N[C@@H](CCCCC)C(=O)N2CCC[C@H]2C(=O)N[C@@H](C(C)C)C(=O)N[C@@H](CC(=O)O)C(=O)N[C@H](C(=O)NCCOCCOCC(=O)N[C@@H](CCC(=O)NCCOCCOCC(=O)NCCCCCCCCCCC(=O)O)C(=O)O)CSCC(=O)N[C@@H](Cc2ccc3ccccc3c2)C(=O)N[C@@H](Cc2ccc(O)cc2)C(=O)N[C@@H](CC(=O)O)C1=O [compound 2219] ({CH2CO}-[2Nal]YD[NHexGly]YVGRL[Ahp(2)]PVDC[AEEA][γGlu][AEEA][Aun]-OH; thioether N-14)
18.6	CCCCCCN1CC(=O)N[C@@H](Cc2ccc(O)cc2)C(=O)N[C@@H](CCCC)C(=O)N[C@@H](CC(N)=O)C(=O)N[C@@H](CCCNC(=N)N)C(=O)N(C)[C@@H](CCCC)C(=O)N[C@@H](CCCCC)C(=O)N2CCC[C@H]2C(=O)N[C@@H](C(C)(C)C)C(=O)N[C@@H](CO)C(=O)N[C@H](C(=O)NCCOCCOCC(=O)N[C@@H](CCC(=O)NCCOCCOCC(=O)NCCCCCCCCCCC(=O)O)C(=O)O)CSCC(=O)N[C@@H](Cc2ccccc2)C(=O)N[C@@H](Cc2ccc(O)cc2)C(=O)N[C@@H](CC(=O)O)C1=O [compound 2224] ({CH2CO}-FYD[NHexGly]Y[Nle]NR[NMeNle][Ahp(2)]P[Tle]SC[AEEA][γGlu][AEEA][Aun]-OH; thioether N-14)
13.1	CCCCCCN1CC(=O)N[C@@H](Cc2ccc(O)cc2)C(=O)N[C@@H](CC(C)C)C(=O)N[C@@H](CC(N)=O)C(=O)N[C@@H](CCCNC(=N)N)C(=O)N[C@@H](CC(C)C)C(=O)N[C@@H](CCCCC)C(=O)N2CCC[C@H]2C(=O)N[C@@H](C(C)C)C(=O)N[C@@H](C(C)C)C(=O)N[C@H](C(=O)NCCOCCOCC(=O)N[C@@H](CCC(=O)NCCOCCOCC(=O)NCCCCCCCCCCC(=O)O)C(=O)O)CSCC(=O)N[C@@H](Cc2ccccc2)C(=O)N[C@@H](Cc2ccc(O)cc2)C(=O)N[C@@H](CC(=O)O)C1=O [compound 2217] ({CH2CO}-FYD[NHexGly]YLNRL[Ahp(2)]PVVC[AEEA][γGlu][AEEA][Aun]-OH; thioether N-14)
12.4	CCCCCCN1CC(=O)N[C@@H](Cc2ccc(O)cc2)C(=O)N[C@@H](CCCC)C(=O)N[C@@H](CC(N)=O)C(=O)N[C@@H](CCCNC(=N)N)C(=O)N[C@@H](CC(C)C)C(=O)N[C@@H](CCCCC)C(=O)N2CCC[C@H]2C(=O)N[C@@H](C(C)C)C(=O)N[C@@H](CO)C(=O)N[C@H](C(=O)NCCOCCOCC(=O)N[C@@H](CCC(=O)NCCOCCOCC(=O)NCCCCCCCCCCC(=O)O)C(=O)O)CSCC(=O)N[C@@H](Cc2ccc3ccccc3c2)C(=O)N[C@@H](Cc2ccc(O)cc2)C(=O)N[C@@H](CC(=O)O)C1=O [compound 2223] ({CH2CO}-[2Nal]YD[NHexGly]Y[Nle]NRL[Ahp(2)]PVSC[AEEA][γGlu][AEEA][Aun]-OH; thioether N-14)
11.5	CCCCCCN1CC(=O)N[C@@H](Cc2ccc(O)cc2)C(=O)N[C@@H](CCCC)C(=O)N[C@@H](CC(N)=O)C(=O)N[C@@H](CCCNC(=N)N)C(=O)N(C)[C@@H](CCCC)C(=O)N[C@@H](CCCCC)C(=O)N2CCC[C@H]2C(=O)N[C@@H](C(C)C)C(=O)N[C@@H](CC(=O)O)C(=O)N[C@H](C(=O)NCCOCCOCC(=O)N[C@@H](CCC(=O)NCCOCCOCC(=O)NCCCCCCCCCCC(=O)O)C(=O)O)CSCC(=O)N[C@@H](Cc2ccccc2)C(=O)N[C@@H](Cc2c[nH]c3ccccc23)C(=O)N[C@@H](CC(=O)O)C1=O [compound 2218] ({CH2CO}-FWD[NHexGly]Y[Nle]NR[NMeNle][Ahp(2)]PVDC[AEEA][γGlu][AEEA][Aun]-OH; thioether N-14)
